Reference: patent US4987121A, “Erythropoietic factor” (Center for Innovative Technology, priority 1988, dated 1991)
Ends that are not written are not given here.

Legend:
CFU-E = experiment: erythroid progenitor CFU-E assay, human bone marrow cells in methylcellulose culture; type: cell-based; settings: for Potentiation of CFU-E(%): ANF analog 0.32 nM + Epo 250 mU/ml, relative to effect of α-ANF[1-28] (100%)
Excerpt: (§1) Utilization of cell culture techniques allowed for the detection of molecules other than Epo which act on erythropoietic precursor cells. […] The erythroid progenitor BFU-E and CFU-E assay was utilized for the in vitro studies by the following method:
(§2) (1) Collect bone marrow cells from normal human volunteers after obtaining informed consent.
(§3) (2) Suspend cells in α-medium containing 10% fetal calf serum.
(§4) (3) Separate by Ficoll-Hypaque gradient to obtain an enriched mononuclear cell population.
(§5) (4) Culture cells (5×10^4 per plate) in petri dishes using a methylcellulose technique (see, Iscove, J. Cell Physiol 83: 309, (1974)).
(§6) (5) Add Human Epo, available from the Toyoba Corp. of New York, N.Y., to the culture on day zero.
(§7) (6) Add ANF-like peptides on days zero, two, five, eight, and eleven.
(§8) In the absence of Epo, ANF has no effect on erythroid colony formation. In FIG. 1, the effects of α-ANF[1-28] alone and in conjunction with an added amount of Epo were studied. Human α-ANF[1-28] diluted in α-medium, obtained from the Peninsula Corporation, was added to the cultures every three days starting at day zero. Control cultures were supplemented with Phosphate Buffered Saline (PBS) alone. PBS is available from the GIBCO corporation of Grand Island, N.Y. Triplicate plates were incubated at 37° C. in a humidified atmosphere of 7% CO2 in air. On the eighth day, cell aggregates which contained more than seven erythroid cells were counted as CFU-E. On the fourteenth day, aggregates of forty cells or more were counted as BFU-E. Hemoglobinization of the cells was confirmed by using a Soret band and morphologically from stained smears. In FIG. 1, the number of observations is indicated in the bottom part of the bar. The standard estimates from mean (SEM) are indicated as error bars. Statistical significances were obtained by using Kruskal-Wallis Analysis of Variance (one way by ranks). Probabilities in FIGS. 1 and 2 are indicated by: 1*=p<0.05; 2*=p<0.01;3*=p<0.005; and 4*=p<0.001. […] The relative increase of Epo activity caused by the presence of ANF is the subject of this invention.

BFU-E = experiment: erythroid progenitor BFU-E assay, human bone marrow cells in methylcellulose culture; type: cell-based; settings: for Potentiation of BFU-E(%): ANF analog 0.32 nM + Epo 250 mU/ml, relative to effect of α-ANF[1-28] (100%)
Excerpt: as §1, §2, §3, §4, §5, §6, §7, §8

[1] = tested on: erythroid precursors (BFU-E and CFU-E); experiment: erythroid progenitor BFU-E and CFU-E assay (statements covering both progenitors); type: cell-based, human; settings: for effect on the stimulatory effect of Epo on both BFU-E and CFU-E: ANF analog 0.32 nM + Epo 250 mU/ml; for potentiation of erythropoiesis versus concentration: with Epo
Excerpt: as §1, §2, §3, §4, §5, §6, §7, §8
The numbers were determined using the lowest ANF concentration as a reference point in each group. There were six observations per group. […] The number values for BFU-E and CFU-E in a culture containing 0.25 U/ml Epo and 0.32 nM α-ANF[1-28] are different for FIGS. 1 and 2 because different human volunteer bone marrow donors were used for each study. The absolute numbers are not the focus of this invention, rather, the subject of this invention is the relative increase in the production of BFU-E and CFU-E caused by Epo in the presence of ANF.

peripheral blood BFU-E = peripheral blood BFU-E assay in the absence of T cells and macrophages; type: cell-based, human; settings: for BFU-E/culture ± SEM: peripheral blood cells, T cells and macrophages removed
Protocol: The cultures contained peripheral blood derived cells instead of bone marrow cells. After Ficoll-Hypaque separation, preparations from peripheral blood were further incubated in plastic dishes twice for thirty minutes to remove macrophages. The majority of T cells were removed by rosetting with sheep red blood cells, available from the Lampire Corporation of Pipersville, Pa., and centrifugation. The remaining T-cells were removed by incubating the cell suspension with Leu-1 antibody, available from Becton-Dickenson, Inc. of Mountain View, Calif., and rabbit complement. Less than 0.3% of macrophages and T cells could be detected in the remaining cell suspension. The probabilities in Table 1 are as follows: *=p<0.025 and **=p<0.005. There were three observations per group. As shown by Table 1, the number of peripheral blood derived BFU-E increased three fold in the presence 0.32 nM of α-ANF[1-28] in cultures containing 250 mU/ml of Epo and less than 0.3% of T cells and macrophages.

[2] = in the presence of α-ANF[1-28] 0.32 nM and Epo 250 mU/ml

Substance | Potentiation of CFU-E(%) (CFU-E) | Potentiation of BFU-E(%) (BFU-E) | effect on the stimulatory effect of Epo on both BFU-E and CFU-E [1] | also measured
α-ANF[4-28] (RSSCFGGRMDRIGAQSGLGCNSFRY; ends and bridges not checked; cysteine pairing not given here; UniProt P01160 127-151, looked up, fragment) [ANF analog available from the Peninsula Corporation; a major circulatory form of ANF] | 208 ± 41.0% | 74.8 ± 15.3% | enhanced | 
erythropoietin [Epo] |  |  |  | BFU-E and CFU-E yield ([1]; 2,000 mU/ml of Epo compared with 250 mU/ml of Epo, identical α-ANF[1-28] concentrations): higher; effect of Epo alone on erythroid precursors ([1]; Epo alone 250 mU/ml): stimulated both erythroid precursors; BFU-E/culture ± SEM (peripheral blood BFU-E; Experiment 1, Epo 250 mU/ml alone): 7.0 ± 0.9; BFU-E/culture ± SEM (peripheral blood BFU-E; Experiment 2, Epo 250 mU/ml alone): 14.0 ± 2.0
α-ANF [1-11] (SLRRSSCFGGR; Atrial natriuretic peptide; UniProt P01160 124-134, looked up, fragment) [ANF[1-11], ANF analog available from the Peninsula Corporation] | 14.8 ± 4.6% | -1.5 ± 8.8% | not significant | 
α-ANF[1-28] (SLRRSSCFGGRMDRIGAQSGLGCNSFRY; not fully specified; ends and bridges not checked; UniProt P01160 124-151, looked up) [human atrial natriuretic factor peptide, obtained from the Peninsula Corporation] | 100 ± 39.2% | 100 ± 24.9% | enhanced | increase in CFU-E (CFU-E; Epo 250 mU/ml plus α-ANF[1-28] 0.32 nM versus Epo alone): two-fold; actual numbers of CFU-E (CFU-E; [2]): 440±176; increase in BFU-E (BFU-E; Epo 250 mU/ml plus α-ANF[1-28] 0.32 nM versus Epo alone (FIG. 1)): four-fold; actual numbers of BFU-E (BFU-E; [2]): 103±26; effect on erythroid precursors / erythroid colony formation in the absence of Epo ([1]; ANF alone, no Epo (0.32 nM in FIG. 1)): no effect; increase of BFU-E and CFU-E production ([1]; in the presence of Epo): up to four fold; potentiation of erythropoiesis versus concentration ([1]; α-ANF[1-28] concentrations above 0.96 nM): leveled off or even declined; potentiation of erythropoiesis versus concentration ([1]; α-ANF[1-28] increased from 0.032 nM to 0.96 nM): concentration dependent potentiation; increase in number of peripheral blood derived BFU-E (peripheral blood BFU-E; 0.32 nM α-ANF[1-28], 250 mU/ml Epo, less than 0.3% of T cells and macrophages): three fold; BFU-E/culture ± SEM (peripheral blood BFU-E; Experiment 1, ANF 0.32nM + Epo 250 mU/ml): 22.7 ± 1.9; BFU-E/culture ± SEM (peripheral blood BFU-E; Experiment 2, ANF 0.32nM + Epo 250 mU/ml): 42.3 ± 6.8
α-ANF[5-28] (SSCFGGRMDRIGAQSGLGCNSFRY; ends and bridges not checked; cysteine pairing not given here; UniProt P01160 128-151, looked up, fragment) [ANF analog available from the Peninsula Corporation; a major circulatory form of ANF] | 143 ± 26.7% | 98.5 ± 38.6% | enhanced | 
α-ANF dimer | 25.4 ± 13.1% | 40.2 ± 26.7% | not significant | 
